Literature values, collected in US11078226B2, “Fluorogenic glycosidase substrate and associated detection method” (ECOLE NORMALE SUPERIEURE DE LYON, priority 2016, dated 2021).

Details: cited from earlier work

For `O=c1[nH]c(-c2cc(Cl)ccc2O)nc2ccc(Cl)cc12` [dichloro-HPQ, 6-chloro-2-(5-chloro-2-hydroxyphenyl)-4(3H)-quinazolinone], the “solubility in aqueous/physiological media” value is listed as “completely insoluble”.
